In ChEMBL document CHEMBL1125697, “Synthesis and pharmacological examination of 1-(3-methoxy-4-methylphenyl)-2-aminopropane and 5-methoxy-6-methyl-2-aminoindan: similarities to 3,4-(methylenedioxy)methamphetamine (MDMA)” (J Med Chem, 1991):
pIC50: −log10 of the molar value. Values joined by “and” are separate entries in the source; they are usually repeats but may differ in a detail not shown here. Equal entries are not always repeated.

Columns and labels:
Rattus norvegicus [1] = test: Percentage of non disrupted rats that selected the drug lever, when given at a dose of 1.00 mg/kg; type: functional
Rattus norvegicus [2] = species on record: Rattus norvegicus; test: Compound was evaluated for the uptake inhibition of [3H]-5-HT in rats; type: functional
Rattus norvegicus [3] = test: Effective dose was evaluated for drug discrimination in I-trained rats, when given at a dose of 0.25 mg/kg; type: functional; details: Rattus norvegicus; read-out: ED50
Rattus norvegicus [4] = test: Effective dose was evaluated for drug discrimination in I-trained rats, when given at a dose of 2.32 micro mol/kg; type: functional
Rattus norvegicus [5] = test: Percentage of non disrupted rats that selected the drug lever, when given at a dose of 1.50 mg/kg; type: functional; details: dose 1.5 mg/kg
Rattus norvegicus [6] = test: Percentage of non disrupted rats that selected the drug lever, when given at a dose of 0.25 mg/kg; type: functional
Rattus norvegicus [7] = test: Effective dose was evaluated for drug discrimination in I-trained rats, when given at a dose of 1.16 micro mol/kg; type: functional
Rattus norvegicus [8] = test: Percentage of non disrupted rats that selected the drug lever, when given at a dose of 0.5 mg/kg; type: functional
Rattus norvegicus [9] = test: Effective dose was evaluated for drug discrimination in I-trained rats, when given at a dose of 0.5 mg/kg; type: functional
Rattus norvegicus [10] = species on record: Rattus norvegicus; test: Effective dose was evaluated for drug discrimination in I-trained rats; type: functional
Rattus norvegicus [11] = test: Momoamine and metabolic levels observed 1 week following acute dosing against at a dose of 10 mg/kg Hippocampus NE; type: ADME, organism-based; design: dose 10 mg/kg; details: in vivo, 168 h
Rattus norvegicus [12] = test: Effective dose was evaluated for drug discrimination in S-trained rats, when given at a dose of 0.25 umol/kg; type: functional
Rattus norvegicus [13] = test: Momoamine and metabolic levels observed 2 weeks following sub-acute dosing against Frontal cortex 5-HIAA; type: ADME, organism-based; details: in vivo, 336 h
Rattus norvegicus [14] = test: Momoamine and metabolic levels observed at 3 hr postdrug against at a dose of 20 mg/kg Hippocampus 5-HIAA; type: ADME, organism-based; design: dose 20 mg/kg; details: in vivo
Rattus norvegicus [15] = test: Momoamine and metabolic levels observed 1 week following acute dosing against at a dose of 20 mg/kg Hippocampus NE; type: ADME, organism-based; design: dose 20 mg/kg; details: in vivo, 168 h
Rattus norvegicus [16] = test: Momoamine and metabolic levels observed 1 week following acute dosing against at a dose of 20 mg/kg Frontal cortex 5-HT; type: ADME, organism-based; design: dose 20 mg/kg; details: in vivo, 168 h
Rattus norvegicus [17] = test: Percentage of non disrupted rats that selected the drug lever, when given at a dose of 0.25 mg/kg in LSD-Trained rats; type: functional
Rattus norvegicus [18] = test: Percentage of non disrupted rats that selected the drug lever, when given at a dose of 0.50 mg/kg in LSD-Trained rats; type: functional; details: dose 0.5 mg/kg
Rattus norvegicus [19] = test: Momoamine and metabolic levels observed 1 week following acute dosing against at a dose of 20 mg/kg Frontal cortex 5-HIAA; type: ADME, organism-based; design: dose 20 mg/kg; details: in vivo, 168 h
Rattus norvegicus [20] = test: Effective dose was evaluated for drug discrimination in S-trained rats, when given at a dose of 0.25 mg/kg; type: functional
Rattus norvegicus [21] = test: Percentage of non disrupted rats that selected the drug lever, when given at a dose of 0.25 mg/kg in S-Amphetamine-Trained rats; type: functional
Rattus norvegicus [22] = test: Momoamine and metabolic levels observed 2 weeks following sub-acute dosing against Frontal cortex NE; type: ADME, organism-based; details: in vivo, 336 h
Rattus norvegicus [23] = test: Momoamine and metabolic levels observed 2 weeks following sub-acute dosing against Frontal cortex HVA; type: ADME, organism-based; details: in vivo, 336 h
Rattus norvegicus [24] = test: Momoamine and metabolic levels observed 1 week following acute dosing at a dose of 10 mg/kg Frontal cortex HVA; type: ADME, organism-based; design: dose 10 mg/kg; details: in vivo, 168 h
Rattus norvegicus [25] = test: Momoamine and metabolic levels observed 2 weeks following sub-acute dosing against Frontal cortex 5-HT; type: ADME, organism-based; details: in vivo, 336 h
Rattus norvegicus [26] = test: Momoamine and metabolic levels observed at 3 hr postdrug against at a dose of 20 mg/kg Frontal cortex NE; type: ADME, organism-based; design: dose 20 mg/kg; details: in vivo
Rattus norvegicus [27] = test: Momoamine and metabolic levels observed 1 week following acute dosing at a dose of 10 mg/kg Frontal cortex DA; type: ADME, organism-based; design: dose 10 mg/kg; details: in vivo, 168 h
Rattus norvegicus [28] = test: Momoamine and metabolic levels observed at 3 hr postdrug against at a dose of 20 mg/kg Frontal cortex 5-HT; type: ADME, organism-based; design: dose 20 mg/kg; details: in vivo
Rattus norvegicus [29] = test: Momoamine and metabolic levels observed 1 week following acute dosing at a dose of 10 mg/kg Frontal cortex 5-HIAA; type: ADME, organism-based; design: dose 10 mg/kg; details: in vivo, 168 h
Rattus norvegicus [30] = test: Percentage of non disrupted rats that selected the drug lever, when given at a dose of 2.00 mg/kg; type: functional
Rattus norvegicus [31] = test: Momoamine and metabolic levels observed 1 week following acute dosing against at a dose of 20 mg/kg Hippocampus 5-HIAA; type: ADME, organism-based; design: dose 20 mg/kg; details: in vivo, 168 h
Rattus norvegicus [32] = test: Momoamine and metabolic levels observed at 3 hr postdrug against at a dose of 20 mg/kg Frontal cortex HVA; type: ADME, organism-based; design: dose 20 mg/kg; details: in vivo
Rattus norvegicus [33] = test: Momoamine and metabolic levels observed at 3 hr postdrug against at a dose of 20 mg/kg Frontal cortex 5-HIAA; type: ADME, organism-based; design: dose 20 mg/kg; details: in vivo
[34] = biological target: Sodium-dependent serotonin transporter (Rattus norvegicus) (UniProt P31652); test: Number of uptake sites for [3H]paroxetine receptor binding after sub-acute dosing against Frontal cortex; type: tissue-based
Rattus norvegicus [35] = test: Momoamine and metabolic levels observed at 3 h postdrug against at a dose of 20 mg/kg Frontal cortex DOPAC; type: ADME, organism-based; design: dose 20 mg/kg; details: in vivo
Rattus norvegicus [36] = test: Momoamine and metabolic levels observed 2 weeks following sub-acute dosing against Frontal cortex DA; type: ADME, organism-based; details: in vivo, 336 h
Rattus norvegicus [37] = test: Momoamine and metabolic levels observed at 3 hr postdrug against at a dose of 20 mg/kg Frontal cortex DA; type: ADME, organism-based; design: dose 20 mg/kg; details: in vivo
Rattus norvegicus [38] = test: Momoamine and metabolic levels observed 1 week following acute dosing at a dose of 10 mg/kg Hippocampus 5-HIAA; type: ADME, organism-based; design: dose 10 mg/kg; details: in vivo, 168 h
Rattus norvegicus [39] = test: Percentage of non disrupted rats that selected the drug lever, when given at a dose of 0.5 mg/kg in S-Amphetamine-Trained rats; type: functional
Rattus norvegicus [40] = test: Momoamine and metabolic levels observed at 3 hr postdrug against at a dose of 20 mg/kg Hippocampus NE; type: ADME, organism-based; design: dose 20 mg/kg; details: in vivo
Rattus norvegicus [41] = test: Momoamine and metabolic levels observed 1 week following acute dosing at a dose of 10 mg/kg Frontal cortex NE; type: ADME, organism-based; design: dose 10 mg/kg; details: in vivo, 168 h
Rattus norvegicus [42] = test: Momoamine and metabolic levels observed 2 weeks following sub-acute dosing against Frontal cortex DOPAC; type: ADME, organism-based; details: in vivo, 336 h
Rattus norvegicus [43] = test: Momoamine and metabolic levels observed 1 week following acute dosing at a dose of 10 mg/kg Frontal cortex 5-HT; type: ADME, organism-based; design: dose 10 mg/kg; details: in vivo, 168 h
Rattus norvegicus [44] = test: Momoamine and metabolic levels observed 2 weeks following sub-acute dosing against Hippocampus 5-HT; type: ADME, organism-based; details: in vivo, 336 h
Rattus norvegicus [45] = test: Momoamine and metabolic levels observed 1 week following acute dosing against at a dose of 20 mg/kg Hippocampus 5-HT; type: ADME, organism-based; design: dose 20 mg/kg; details: in vivo, 168 h
Rattus norvegicus [46] = test: Momoamine and metabolic levels observed 1 week following acute dosing against at a dose of 20 mg/kg Frontal cortex HVA; type: ADME, organism-based; design: dose 20 mg/kg; details: in vivo, 168 h
Rattus norvegicus [47] = test: Momoamine and metabolic levels observed 1 week following acute dosing at a dose of 10 mg/kg Frontal cortex DOPAC; type: ADME, organism-based; design: dose 10 mg/kg; details: in vivo, 168 h
Rattus norvegicus [48] = test: Percentage of non disrupted rats that selected the drug lever, when given at a dose of 2.00 mg/kg in LSD-Trained rats; type: functional
Rattus norvegicus [49] = test: Momoamine and metabolic levels observed 2 weeks following sub-acute dosing against Hippocampus NE; type: ADME, organism-based; details: in vivo, 336 h
Rattus norvegicus [50] = test: Percentage of non disrupted rats that selected the drug lever, when given at a dose of 1.00 mg/kg in S-Amphetamine-Trained rats; type: functional
Rattus norvegicus [51] = test: Momoamine and metabolic levels observed 2 weeks following sub-acute dosing against Hippocampus 5-HIAA; type: ADME, organism-based; details: in vivo, 336 h
Rattus norvegicus [52] = test: Momoamine and metabolic levels observed 1 week following acute dosing against at a dose of 10 mg/kg Hippocampus 5-HT; type: ADME, organism-based; design: dose 10 mg/kg; details: in vivo, 168 h
[53] = biological target: Sodium-dependent serotonin transporter (Rattus norvegicus) (UniProt P31652); test: Number of uptake sites for [3H]paroxetine receptor binding after sub-acute dosing against Hippocampus
Rattus norvegicus [54] = test: Momoamine and metabolic levels observed 1 week following acute dosing against at a dose of 20 mg/kg Frontal cortex DA; type: ADME, organism-based; design: dose 20 mg/kg; details: in vivo, 168 h
Rattus norvegicus [55] = test: Momoamine and metabolic levels observed 1 week following acute dosing against at a dose of 20 mg/kg Frontal cortex NE; type: ADME, organism-based; design: dose 20 mg/kg; details: in vivo, 168 h
Rattus norvegicus [56] = test: Momoamine and metabolic levels observed 1 week following acute dosing against at a dose of 20 mg/kg Frontal cortex DOPAC; type: ADME, organism-based; design: dose 20 mg/kg; details: in vivo, 168 h

Chain of Sodium-dependent serotonin transporter (Rattus norvegicus) (P31652 whole entry): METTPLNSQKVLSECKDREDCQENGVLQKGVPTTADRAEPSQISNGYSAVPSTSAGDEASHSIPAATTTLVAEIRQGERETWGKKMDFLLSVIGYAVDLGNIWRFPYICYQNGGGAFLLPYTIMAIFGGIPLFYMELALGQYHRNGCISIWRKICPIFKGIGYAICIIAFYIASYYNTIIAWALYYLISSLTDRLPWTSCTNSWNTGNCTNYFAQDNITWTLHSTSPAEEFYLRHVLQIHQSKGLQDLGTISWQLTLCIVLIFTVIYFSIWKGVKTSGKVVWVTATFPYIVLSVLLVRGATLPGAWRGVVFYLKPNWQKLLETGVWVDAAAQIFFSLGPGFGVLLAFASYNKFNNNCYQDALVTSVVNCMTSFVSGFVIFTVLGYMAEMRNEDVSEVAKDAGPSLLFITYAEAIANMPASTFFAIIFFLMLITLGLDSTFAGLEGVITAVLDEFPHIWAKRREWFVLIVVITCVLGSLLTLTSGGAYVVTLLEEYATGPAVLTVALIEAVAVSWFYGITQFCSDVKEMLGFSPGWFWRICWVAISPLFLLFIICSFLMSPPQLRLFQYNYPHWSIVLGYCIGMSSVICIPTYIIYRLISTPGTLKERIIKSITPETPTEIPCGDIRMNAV

**Q.** With `COc1cc(C[C@@H](C)N)ccc1C` as the compound, how does the SDL (Rattus norvegicus [1]) read?
**A.** 75%

**Q.** What about the pIC50 (Rattus norvegicus [2]) of the same compound?
**A.** 6.70

**Q.** And the ED50 (Rattus norvegicus [3])?
**A.** 0.46 mg/kg

**Q.** What about the ED50 (Rattus norvegicus [4]) of the same compound?
**A.** 2.12 µmol/kg

**Q.** And the SDL (Rattus norvegicus [5])?
**A.** 100%

**Q.** And the SDL (Rattus norvegicus [6])?
**A.** 33%

**Q.** What about the ED50 (Rattus norvegicus [7]) of the same compound?
**A.** 2.12 µmol/kg

**Q.** What about the SDL (Rattus norvegicus [8]) of the same compound?
**A.** 38%

**Q.** And the ED50 (Rattus norvegicus [9])?
**A.** 0.46 mg/kg

**Q.** `CC[C@@H](Cc1ccc2c(c1)OCO2)NC` was tested. Which ED50 (Rattus norvegicus [10]) did it give?
**A.** 0.79 mg/kg and 3.25 µmol/kg

**Q.** For `CCN(CC)C(=O)[C@@H]1C=C2c3cccc4[nH]cc(c34)C[C@H]2N(C)C1` [LYSERGIDE], which ED50 (Rattus norvegicus [10]) is on record?
**A.** 0.025 mg/kg and 0.058 µmol/kg

**Q.** What does the source list for `COc1cc(CC(C)N)ccc1C` (centres undefined)?
**A.** Metabolite level (Rattus norvegicus [11]): 620; ED50 (Rattus norvegicus [12]): 2.16 µmol/kg; Metabolite level (Rattus norvegicus [13]): 253; Metabolite level (Rattus norvegicus [14]): 260; SDL (Rattus norvegicus [1]): 63%; Metabolite level (Rattus norvegicus [15]): 578; Metabolite level (Rattus norvegicus [16]): 316; SDL (Rattus norvegicus [17]): 0%; SDL (Rattus norvegicus [18]): 38%; Metabolite level (Rattus norvegicus [19]): 229; ED50 (Rattus norvegicus [20]): 0.47 mg/kg; SDL (Rattus norvegicus [21]): 0%; Metabolite level (Rattus norvegicus [22]): 573; Metabolite level (Rattus norvegicus [23]): 62; Metabolite level (Rattus norvegicus [24]): 70; Metabolite level (Rattus norvegicus [25]): 411; Metabolite level (Rattus norvegicus [26]): 585; Metabolite level (Rattus norvegicus [27]): 88; Metabolite level (Rattus norvegicus [28]): 212; Metabolite level (Rattus norvegicus [29]): 233; SDL (Rattus norvegicus [30]): 100%; Metabolite level (Rattus norvegicus [31]): 430; Metabolite level (Rattus norvegicus [32]): 138; Metabolite level (Rattus norvegicus [33]): 139; pIC50 (Rattus norvegicus [2]): 6.87; ED50 (Rattus norvegicus [3]): 0.59 mg/kg; No. of uptake sites [34]: 12.3; Metabolite level (Rattus norvegicus [35]): 46; Metabolite level (Rattus norvegicus [36]): 83; Metabolite level (Rattus norvegicus [37]): 120; Metabolite level (Rattus norvegicus [38]): 460; SDL (Rattus norvegicus [39]): 0%; Metabolite level (Rattus norvegicus [40]): 641; Metabolite level (Rattus norvegicus [41]): 394; Metabolite level (Rattus norvegicus [42]): 74; SDL (Rattus norvegicus [6]): 11%; Metabolite level (Rattus norvegicus [43]): 281; ED50 (Rattus norvegicus [7]): 2.74 µmol/kg; Metabolite level (Rattus norvegicus [44]): 392; Metabolite level (Rattus norvegicus [45]): 431; Metabolite level (Rattus norvegicus [46]): 85; SDL (Rattus norvegicus [8]): 50%; Metabolite level (Rattus norvegicus [47]): 39; SDL (Rattus norvegicus [48]): 75%; Metabolite level (Rattus norvegicus [49]): 724; SDL (Rattus norvegicus [50]): 0%; Metabolite level (Rattus norvegicus [51]): 503; Metabolite level (Rattus norvegicus [52]): 255; No. of uptake sites [53]: 14.9; Metabolite level (Rattus norvegicus [54]): 86; Metabolite level (Rattus norvegicus [55]): 487; Metabolite level (Rattus norvegicus [56]): 45

**Q.** `CNC(C)Cc1ccc2c(c1)OCO2` (centres undefined) [MIDOMAFETAMINE] was tested. Which ED50 (Rattus norvegicus [10]) did it give?
**A.** 0.64 mg/kg and 2.79 µmol/kg
